Laboratory results as given in patent publication US7786141B2 (Vertex Pharmaceuticals Incorporated, priority 2004, dated 2010).

Key:
[1] = molecular target: T1, M4 muscarinic receptor (Homo sapiens, UniProt P08173); test: Functional mobilization of intracellular calcium (FLIPR) in M4-CHO cells; assay type: cell-based; details: M4-CHO cells, calcium mobilization (FLIPR); for Emax: read-out: M4 Efficacy
T1 construct: expressed in transfected cells; host or cells: CHO (M4-CHO)
T1 sequence (P08173 1-479): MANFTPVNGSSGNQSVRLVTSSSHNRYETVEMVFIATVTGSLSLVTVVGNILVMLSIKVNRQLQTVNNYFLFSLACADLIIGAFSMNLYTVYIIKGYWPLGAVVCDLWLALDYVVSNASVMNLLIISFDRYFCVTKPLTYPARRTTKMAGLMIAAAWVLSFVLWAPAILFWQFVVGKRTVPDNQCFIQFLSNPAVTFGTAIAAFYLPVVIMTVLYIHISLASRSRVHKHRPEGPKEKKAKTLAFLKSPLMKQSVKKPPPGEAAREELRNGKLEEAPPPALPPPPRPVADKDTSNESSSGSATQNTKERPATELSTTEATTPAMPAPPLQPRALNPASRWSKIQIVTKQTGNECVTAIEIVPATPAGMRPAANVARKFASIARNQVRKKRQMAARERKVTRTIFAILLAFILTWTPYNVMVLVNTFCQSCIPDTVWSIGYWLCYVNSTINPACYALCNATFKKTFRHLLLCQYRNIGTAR
Procedure, shortened: (§1)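 CHO cells stably expressing human M1 or M4 receptor were loaded with Fluo-3 AM (or Calcium 3 dye) in Hepes-buffered saline, pH 7.4, with 1 mM probenecid, 0.5% final DMSO. Agonist mode: compound added directly; antagonist mode: 15 min preincubation before carbachol at EC80. FLIPR fluorescence recorded 60 sec.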

[2] = molecular target: T2, M1 muscarinic receptor (Homo sapiens, UniProt P11229); test: Functional mobilization of intracellular calcium (FLIPR) in M1-CHO cells; assay type: cell-based; details: M1-CHO cells, calcium mobilization (FLIPR); for Emax: read-out: M1 Efficacy
T2 construct: expressed in transfected cells; host or cells: CHO (M1-CHO)
T2 sequence (P11229 1-460): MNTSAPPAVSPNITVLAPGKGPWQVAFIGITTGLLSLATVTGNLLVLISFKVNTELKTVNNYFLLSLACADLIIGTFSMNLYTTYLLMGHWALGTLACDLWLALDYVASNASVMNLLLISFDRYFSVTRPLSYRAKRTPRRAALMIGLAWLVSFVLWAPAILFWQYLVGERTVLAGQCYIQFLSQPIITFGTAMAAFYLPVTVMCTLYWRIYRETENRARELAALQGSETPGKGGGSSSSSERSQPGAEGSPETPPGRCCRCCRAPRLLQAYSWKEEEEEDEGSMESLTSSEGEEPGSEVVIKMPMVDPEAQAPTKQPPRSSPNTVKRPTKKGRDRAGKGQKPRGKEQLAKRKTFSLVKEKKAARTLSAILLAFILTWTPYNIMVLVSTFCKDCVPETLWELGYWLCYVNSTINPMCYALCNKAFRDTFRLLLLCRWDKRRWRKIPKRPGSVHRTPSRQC
Procedure, shortened: as §1

| SMILES | EC50 [1] [nM] | Emax [1] [%] | EC50 [2] [nM] | Emax [2] [%] |
| --- | --- | --- | --- | --- |
| O=C(C1CC1)N1CC2(CCN(C3CC4CCC(C3)N4C(=O)OC3CCC3)CC2)c2cc(F)ccc21 (stereo not shown) [compound 379] | 100 to 1000 | 65 to 85 | < 100 | 65 to 85 |
| CC(=O)N1CC2(CCN(C3CCN(C(=O)OC(C)C)CC3)CC2)c2cc(C)ccc21 [compound 380] | 100 to 1000 | 65 to 85 | < 100 | 65 to 85 |
| CCOC(=O)N1CCC(N2CCC3(CC2)CN(C(C)=O)c2c(F)cccc23)CC1 [compound 381] | > 1000 | < 65 | < 100 | 65 to 85 |
| Cc1ccc2c(c1)C1(CCN(CC3CC4CCC3C4)CC1)CN2C(=O)OC(C)(C)C (stereo not shown) [compound 382] | > 1000 | 65 to 85 | < 100 | 65 to 85 |
| COC(=O)N1C2CCC1CC(N1CCC3(CC1)CN(S(C)(=O)=O)c1ccc(F)cc13)C2 (stereo not shown) [compound 383] | 100 to 1000 | < 65 | < 100 | 65 to 85 |
| CCOC(=O)N1CCC(N2CCC3(CC2)CN(C(=O)c2ccccc2)c2ccc(F)cc23)CC1 [compound 384] | > 1000 | < 65 | 100 to 1000 | < 65 |
| CC(=O)CN1CC2(CCN(C[C@@H]3C[C@H]4C=C[C@H]3C4)CC2)c2cc(F)ccc21 [compound 385] | > 1000 | < 65 | 100 to 1000 | 65 to 85 |
| CCCOC(=O)N1C2CCC1CC(N1CCC3(CC1)CN(C(=O)OC)c1ccc(F)cc13)C2 (stereo not shown) [compound 386] | 100 to 1000 | < 65 | 100 to 1000 | < 65 |
| CC(=O)N1CC2(CCN(C3CCCCC3)CC2)c2cc(F)ccc21 [compound 387] | 100 to 1000 | < 65 | < 100 | 65 to 85 |
| CS(=O)(=O)N1CC2(CCN(C3CC4CCC(C3)N4C(=O)O[C@H]3CCOC3)CC2)c2cc(F)ccc21 (stereo partly shown) [compound 388] | > 1000 | < 65 | < 100 | 65 to 85 |
| CCCOC(=O)N1C2CCC1CC(N1CCC3(CC1)CN(C(=O)C1CC1)c1ccc(F)cc13)C2 (stereo not shown) [compound 389] | > 1000 | < 65 | 100 to 1000 | 65 to 85 |
| CCOC(=O)N1C2CCC1CC(N1CCC3(CC1)CN(C(=O)C(C)C)c1ccc(F)cc13)C2 (stereo not shown) [compound 390] | > 1000 | < 65 | < 100 | 65 to 85 |
| CCOC(=O)N1CCC(N2CCC3(CC2)CN(CCOC)c2ccc(F)cc23)CC1 [compound 391] | > 1000 | < 65 | 100 to 1000 | < 65 |
| CC(=O)NC1CC2(CCN(C[C@H]3C[C@H]4C=C[C@H]3C4)CC2)c2ccccc21 (stereo partly shown) [compound 392] | > 1000 | < 65 | < 100 | 65 to 85 |
| CC(=O)N1CC2(CCN(CC3CCCCC3)CC2)c2cc(F)ccc21 [compound 393] | > 1000 | < 65 | < 100 | 65 to 85 |
| CC(=O)N1CC2(CCN(C3CCN(C(=O)OCCF)C3)CC2)c2cc(F)ccc21 (stereo not shown) [compound 394] | 100 to 1000 | < 65 | < 100 | < 65 |
| CC(=O)N1CC2(CCN(C3CCCN(C(=O)OC(C)C)CC3)CC2)c2cc(F)ccc21 (stereo not shown) [compound 395] | > 1000 | < 65 | < 100 | < 65 |
| CCOC(=O)N1CCC(N2CCC3(CC2)CN(C(=O)c2c(F)cccc2F)c2ccc(F)cc23)CC1 [compound 396] | > 1000 | < 65 | 100 to 1000 | < 65 |
| Cc1ccc2c(c1)C1(CCN(C3CC4CCC(C4)C3)CC1)CN2 (stereo not shown) [compound 397] | > 1000 | < 65 | 100 to 1000 | 65 to 85 |
| CC(=O)N1CC2(CCN(C3CCN(C(=O)O[C@H]4CCOC4)CC3)CC2)c2cc(C)ccc21 [compound 398] | > 1000 | < 65 | 100 to 1000 | < 65 |

| SMILES | EC50 [1] [nM] | Emax [1] [%] | EC50 [2] [nM] | Emax [2] [%] |
| --- | --- | --- | --- | --- |
| CC(=O)N[C@H]1CC2(CCN(CC3CCN(C(=O)OC(C)C)CC3)CC2)c2ccccc21 [compound 399] | 100 to 1000 | < 65 | 100 to 1000 | 65 to 85 |
| CCNC(=O)N1CC2(CCN(C3CC4CCC3C4)CC2)c2cc(C)ccc21 (stereo not shown) [compound 400] | > 1000 | < 65 | > 1000 | < 65 |
| CCOC(=O)N1CCC(N2CCC3(CC2)CN(C(=O)c2ccc4c(c2)OCO4)c2ccc(F)cc23)CC1 [compound 401] | > 1000 | < 65 | < 100 | 65 to 85 |
| CC(C)OC(=O)N1C2CCC1CC(N1CCC3(CC1)CN(C(=O)O[C@@H]1CCOC1)c1ccc(F)cc13)C2 (stereo partly shown) [compound 402] | > 1000 | < 65 | 100 to 1000 | 65 to 85 |
| CC(=O)N1CC2(CCN(CC3CCN(C(=O)O[C@@H]4CCOC4)CC3)CC2)c2cc(C)ccc21 [compound 403] | > 1000 | < 65 | < 100 | 65 to 85 |
| CC(=O)N1CC2(CCN(CC3CCN(C(=O)OC(C)C)CC3)CC2)c2cc(C)ccc21 [compound 404] | > 1000 | < 65 | 100 to 1000 | < 65 |
| CCCOC(=O)N1C2CCC1CC(N1CCC3(CC1)CN(C(=O)OCCOC)c1ccc(F)cc13)C2 (stereo not shown) [compound 405] | > 1000 | < 65 | 100 to 1000 | < 65 |
| CCOC(=O)N1CCC(N2CCC3(CC2)CN(C(C)=O)c2ccc(-c4ccc(C(N)=O)cc4)cc23)CC1 [compound 406] | > 1000 | < 65 | 100 to 1000 | < 65 |
| C/C=C\c1ccc2c(c1)C1(CCN(C3CCN(C(=O)OCC)CC3)CC1)CN2C(C)=O [compound 407] | > 1000 | < 65 | 100 to 1000 | < 65 |
| CC(=O)NC1CC2(CCN(C[C@@H]3C[C@H]4C=C[C@H]3C4)CC2)c2ccccc21 (stereo partly shown) [compound 408] | < 100 | 65 to 85 | < 100 | 65 to 85 |
| CCOC(=O)N1C2CCC1CC(N1CCC3(CC1)CN(C(=O)OC1CCC1)c1ccc(F)cc13)C2 (stereo not shown) [compound 409] | < 100 | > 85 | < 100 | > 85 |
| CCOC(=O)N1CCC(N2CCC3(CC2)CN(C(=O)c2cccc(F)c2)c2ccc(F)cc23)CC1 [compound 410] | 100 to 1000 | < 65 | 100 to 1000 | < 65 |
| Cc1cc(C(=O)N2CC3(CCN(C4CC5CCC(C4)N5C(=O)O[C@H]4CCOC4)CC3)c3cc(F)ccc32)nn1C (stereo partly shown) [compound 411] | 100 to 1000 | < 65 | < 100 | < 65 |
| COCCOC(=O)N1CCC(CN2CCC3(CC2)C[C@H](NC(C)=O)c2ccccc23)CC1 [compound 412] | > 1000 | < 65 | 100 to 1000 | < 65 |
| CCOC(=O)N1CCC(N2CCC3(CC2)CN(C(C)=O)c2ccc(F)cc23)CC1 [compound 413] | 100 to 1000 | < 65 | < 100 | < 65 |
| CCOC(=O)N1CCC(CN2CCC3(CCc4ccccc43)CC2)CC1 [compound 414] | > 1000 | < 65 | > 1000 | < 65 |
| Clc1ccc2c(c1)C1(CCN(CC3CCOCC3)CC1)CO2 [compound 415] | > 1000 | < 65 | > 1000 | < 65 |
| Fc1ccc2c(c1)C1(CCN(C3CC4CCC3C4)CC1)CN2 (stereo not shown) [compound 416] | > 1000 | < 65 | > 1000 | < 65 |
| CCOC(=O)N1C2CCC1CC(N1CCC3(CC1)CN(C(C)=O)c1ccc(Cl)cc13)C2 (stereo not shown) [compound 417] | > 1000 | < 65 | 100 to 1000 | < 65 |
| CC(=O)N1CC2(CCN(C3CCN(C(=O)O[C@H]4CCOC4)CC3)CC2)c2cc(F)ccc21 [compound 418] | > 1000 | < 65 | > 1000 | < 65 |
